In patent US20180193412A1, “Method of In Vivo Treatment” (Hexima Limited, priority 2015, published 2018):

Experiments:
C. gattii = assay: Inhibition of growth of C. gattii, Example 2 antifungal assay; assay type: cell-based; conditions: ½ strength PDB, 30° C., A595
Protocol: (§1) The inhibitory effects of the plant defensins on the growth of Candida albicans, Aspergillus fumigatus (obtained from the National Mycology Reference Centre, South Australia Pathology at the Women's and Children's Hospital, Adelaide, Australia), C. glabrata, C. tropicalis, A. flavus, A. niger, A. fumigants, Cryptococcus neoformans and C. gattii (obtained from Dee Carter, University of Sydney, New South Wales, Australia) are measured essentially as described by Broekaert et al. (1990) FEMS Microbiol Lett 69:55-59.
(§2) Spores of A. flavus. A. niger and A. fumigatus are isolated from sporulating fungus growing on ½ strength Sabouraud dextrose agar. Spores were removed from the plates by the addition of ½ strength potato dextrose broth (PDB). C. albicans, C. glabrata, C. tropicalis, C. neoformans and C. gattii cells are grown in Yeast Peptone Broth (YPD) for 16 h. Spore and cell concentrations are measured using a hemocytometer.
(§3) Antifungal assays are conducted in 96 well microtitre plates essentially as herein described. Wells are loaded with 20 μL of filter sterilized (0.22 μm syringe filter, Millipore) defensin (10× stock for each final concentration) or water and 80 μL of 5×10^4 spores/mL (A. flavus, A. niger, A. fumigatus), 5,000 cells/mL (C. albicans, C. glabrata, C. tropicalis) or 1×10^6 cells/mL (C. neoformans, C. gattii) in ½ strength PDB. The plates are incubated at 30° C. Fungal growth is assayed by measuring optical density at 595 nm (A595) using a microtitre plate reader (SpectraMax Pro M2; Molecular Devices. Growth is allowed to proceed until the optical density (OD) of the fungus in the absence of any test defensin reached an OD of 0.2. Each test is performed in duplicate.

C. glabrata = assay: Inhibition of growth of C. glabrata, Example 2 antifungal assay; assay type: cell-based; conditions: ½ strength PDB, 30° C., A595
Protocol: as §1, §2, §3

A. fumigatus = assay: Inhibition of growth of Aspergillus fumigatus, Example 2 antifungal assay; assay type: cell-based; conditions: ½ strength PDB, 30° C., A595
Protocol: as §1, §2, §3

C. tropicalis = assay: Inhibition of growth of C. tropicalis, Example 2 antifungal assay; assay type: cell-based; conditions: ½ strength PDB, 30° C., A595
Protocol: as §1, §2, §3

[1] = test system: Trichophyton rubrum, T. interdigitale, Microsporum fulvum and C. albicans; assay: Inhibition assays of Example 1, summary across the range of fungal pathogens; assay type: cell-based; conditions: summary of Table 3, at the concentrations tested
Protocol: (§4) The inhibitory effects of the plant defensins on the growth of Trichophyton rubrum, T. interdigitale, Microsporum fulvum and C. albicans (all obtained from the National Mycology Reference Centre, South Australia Pathology at the Women's and Children's Hospital, Adelaide, Australia) are measured essentially as described by Broekaert et al. (1990) FEMS Microbiol Lett 69:55-59.
as §2, with “T. rubrum, T. interdigitale” for “A. flavus. A. niger”, “M. fulvum” for “A. fumigatus”, “albicans” for “albicans, C. glabrata, C. tropicalis, C. neoformans and C. gattii”
as §3, with “Ξ m” for “μm”, “(T. rubrum, T. interdigitale, M. fulvum) or” for “(A. flavus, A. niger, A. fumigatus),”, “albicans)” for “albicans, C. glabrata, C. tropicalis) or 1×10^6 cells/mL (C. neoformans, C. gattii)”

B. subtilis = assay: Inhibition of the growth of Bacillus subtilis (OD595, 18 hours); assay type: cell-based; conditions: for IC50: Mueller-Hinton Broth, 37° C., 18 hours, up to 20 μM, read-out: IC50 against B. subtilis; for Inhibition of growth of B. subtilis: at the concentrations tested (0.3125-20 μM)
Protocol: (§5) A single E. coli or B. subtilis colony was used to inoculate 5 ml of Luria-Bertani media and grown overnight at 37° C. The following day, the optical density of the culture was measured and the bacteria diluted to an optical density at 600 nm (OD600) of 0.01 in Mueller-Hinton Broth. Diluted E. coli or B. subtilis were added to 96-well plates with defensins at concentrations of 20 μM, 10 μM, 5 μM, 2.5 μM, 1.25 μM, 0.625 μM or 0.3125 μM. Plates were read at OD595 to obtain time zero data points. Plates were incubated at 37° C. for 18 hours before reading again at OD595 to assess the amount of bacterial growth.

E. coli = assay type: cell-based, Escherichia coli; conditions: for IC50: Mueller-Hinton Broth, 37° C., 18 hours, up to 20 μM, read-out: IC50 against E. coli; for Inhibition of growth of E. coli: at the concentrations tested (0.3125-20 μM)
Protocol: as §5

T. rubrum = assay: Inhibition of growth of Trichophyton rubrum by plant defensins (microtitre A595 antifungal assay); assay type: cell-based; conditions: ½ strength PDB, 30° C.
Protocol: as §4
as §2, with “T. rubrum, T. interdigitale” for “A. flavus. A. niger”, “M. fulvum” for “A. fumigatus”, “albicans” for “albicans, C. glabrata, C. tropicalis, C. neoformans and C. gattii”
as §3, with “Ξ m” for “μm”, “(T. rubrum, T. interdigitale, M. fulvum) or” for “(A. flavus, A. niger, A. fumigatus),”, “albicans)” for “albicans, C. glabrata, C. tropicalis) or 1×10^6 cells/mL (C. neoformans, C. gattii)”

C. neoformans = assay: Inhibition of growth of Cryptococcus neoformans, Example 2 antifungal assay; assay type: cell-based; conditions: ½ strength PDB, 30° C., A595
Protocol: as §1, §2, §3

A. flavus = assay: Inhibition of growth of A. flavus, Example 2 antifungal assay; assay type: cell-based; conditions: ½ strength PDB, 30° C., A595
Protocol: as §1, §2, §3

C. albicans = assay: Inhibition of growth of Candida albicans, Example 2 antifungal assay; assay type: cell-based; conditions: Table 4; ½ strength PDB, 30° C., A595
Protocol: as §1, §2, §3

T. albicans = assay: Inhibition of growth of C. albicans by plant defensins, Example 1 (microtitre A595 antifungal assay); assay type: cell-based; conditions: for IC50 against T. albicans: Table 3, ½ strength PDB, 30° C., A595
Protocol: as §4
as §2, with “T. rubrum, T. interdigitale” for “A. flavus. A. niger”, “M. fulvum” for “A. fumigatus”, “albicans” for “albicans, C. glabrata, C. tropicalis, C. neoformans and C. gattii”
as §3, with “Ξ m” for “μm”, “(T. rubrum, T. interdigitale, M. fulvum) or” for “(A. flavus, A. niger, A. fumigatus),”, “albicans)” for “albicans, C. glabrata, C. tropicalis) or 1×10^6 cells/mL (C. neoformans, C. gattii)”

A. niger = assay: Inhibition of growth of A. niger, Example 2 antifungal assay; assay type: cell-based; conditions: ½ strength PDB, 30° C., A595
Protocol: as §1, §2, §3

M. fulvum = assay: Inhibition of growth of Microsporum fulvum by plant defensins (microtitre A595 antifungal assay); assay type: cell-based; conditions: for IC50 against M. fulvum: ½ strength PDB, 30° C., A595
Protocol: as §4
as §2, with “T. rubrum, T. interdigitale” for “A. flavus. A. niger”, “M. fulvum” for “A. fumigatus”, “albicans” for “albicans, C. glabrata, C. tropicalis, C. neoformans and C. gattii”
as §3, with “Ξ m” for “μm”, “(T. rubrum, T. interdigitale, M. fulvum) or” for “(A. flavus, A. niger, A. fumigatus),”, “albicans)” for “albicans, C. glabrata, C. tropicalis) or 1×10^6 cells/mL (C. neoformans, C. gattii)”

T. interdigitale = assay: Inhibition of growth of T. interdigitale by plant defensins (microtitre A595 antifungal assay); assay type: cell-based, Trichophyton interdigitale; conditions: ½ strength PDB, 30° C.
Protocol: as §4
as §2, with “T. rubrum, T. interdigitale” for “A. flavus. A. niger”, “M. fulvum” for “A. fumigatus”, “albicans” for “albicans, C. glabrata, C. tropicalis, C. neoformans and C. gattii”
as §3, with “Ξ m” for “μm”, “(T. rubrum, T. interdigitale, M. fulvum) or” for “(A. flavus, A. niger, A. fumigatus),”, “albicans)” for “albicans, C. glabrata, C. tropicalis) or 1×10^6 cells/mL (C. neoformans, C. gattii)”

Row | Substance | IC50 against C. gattii (C. gattii) [µg/mL] | IC50 against C. glabrata (C. glabrata) [µg/mL] | IC50 against A. fumigatus (A. fumigatus) [µg/mL] | IC50 against C. tropicalis (C. tropicalis) [µg/mL] | Activity across the range of fungal pathogens [1] | IC50 (B. subtilis) [µM] | Inhibition of growth of B. subtilis (B. subtilis) | IC50 (E. coli) [µM] | Inhibition of growth of E. coli (E. coli) | IC50 against T. rubrum (T. rubrum) [µg/mL] | IC50 against C. neoformans (C. neoformans) [µg/mL] | IC50 against A. flavus (A. flavus) [µg/mL] | IC50 against C. albicans (C. albicans) [µg/mL] | IC50 against T. albicans (T. albicans) [µg/mL] | IC50 against A. niger (A. niger) [µg/mL] | IC50 against M. fulvum (M. fulvum) [µg/mL] | Inhibition of C. albicans (T. albicans; summary of Table 3) | Inhibition of M. fulvum (M. fulvum; summary of Table 3) | IC50 against T. interdigitale (T. interdigitale) [µg/mL]
1 | HXL001: Class I plant defensin from Zea mays (RHCLSQSHRFKGLCMSSNNCANVCQTENFPGGECKAEGATRKCFCKKIC; HXL001 Zea mays) | 40 | 32 | >100 | 6 | did not display any activity | > 20 | did not inhibit the growth | > 20 | did not inhibit the growth | >100 | 10 | >100 | 35 | 35 | >100 | >100 |  |  | 
2 | HXL002: Class I plant defensin from Triticum aestivum (RDCLSQSHKFKGACLSSSNCAAVCRTENFPDGECHTHNFARKCFCKRAC; HXL002 Triticum aestivum) | 18 | 15 | 25 | 2 |  | > 20 | did not inhibit the growth | > 20 | did not inhibit the growth |  | 2.5 |  | 35 | 35 | 20 | 50 | very poor inhibitors | very poor inhibitors | 
3 | HXL003: Class I plant defensin from Triticum aestivum (ARDCTSQSHKFVGLCLSDRNCASVCLTEYFTGGKCDHRRCVCTKGC; HXL003 Triticum aestivum) | 20 | >100 | >100 | 8 |  | > 20 | did not inhibit the growth | > 20 | did not inhibit the growth |  | 3 | >100 | >100 | >100 | >100 | >100 |  |  | 
4 | HXL009: Class I plant defensin from Zea mays (TVCMRHNNFYHGPCMSNKDCANSCVQHNLGVGGYCRGKIPFNKECMCTFEC; HXL009 Zea mays) | 38 | >100 | >100 | 12 | did not display any activity | > 20 |  | > 20 |  |  | 8 | >100 | >100 | >100 | >100 | >100 |  |  | 
5 | HXL013: Class I plant defensin from Glycine max (KDCLTRRHGFQGRCLFDRQCAHVCRSDGFIGGQCRGPLRKCFCSRPC; HXL013 Glycine max) | 22 | 25 | >100 | 12 | intermediate activity | 10 |  | > 20 |  | 22 | 9 | >100 | 20 | 20 | >100 | 5.5 |  |  | 
6 | HXL015: Class I plant defensin from Oryza sativa (RHCLSQSHRFKGMCVSSNNCANVCRTESFPDGECKSHGLERKCFCKKVC; HXL015 Oryza sativa) |  |  |  |  | intermediate activity |  |  |  |  | 10 |  |  | 5 |  |  | 12.5 |  |  | 3.5
7 | HXL035: Class I plant defensin from Picramnia pentandra (KVCTKPSKFFKGLCGFDRDCTVACKKEGLASGFCQNKGFFNVVCVCRKPC; HXL035 Picramnia pentandra) | 20 | 10 | 7.5 | 6 | most effective |  |  |  |  | 2 | 5 | 25 | 18 | 18 | 6 | 2 |  |  | 1
8 | NaD1: Solanaceous Class II plant defensin from Nicotiana alata (RECKTESNTFPGICITKPPCRKACISEKFTDGHCSKILRRCLCTKPC; NaD1 Nicotiana alata) | 5 | 14 | 8 | 2.5 |  |  | did not inhibit the growth | > 20 | did not inhibit the growth | 8 | 3 | 20 | 20 | 20 | 16 | 5.3 |  |  | 10
